Experimental data from US20170136008A1, “OXABICYCLOHEPTANES AND OXABICYCLOHEPTENES FOR THE TREATMENT OF OVARIAN CANCER” (priority 2014, published 2017).

How the values were obtained:
[1] = test system: OVCAR-8 ovarian cancer cells; test: MTT cytotoxicity assay, OVCAR-8; type: cell-based, human; settings: Homo sapiens, OVCAR-8, OVCAR8, read-out: IC50, viability of ovarian cancer cell line
Description: SKOV-3 ovarian cancer cells were purchased from American Type Culture Collection (ATCC) (Manassas, Va.). SKOV-3 cells were cultured in McCoy's 5A medium (ATCC, Manassas, Va.) supplemented with 10% fetal bovine serum and 100 units/mL penicillin G sodium, 100 ug/mL streptomycin sulfate, and 292 μg/ml, L-glutamine (BioWhittaker, Wakersville, Md.). Luciferase-expressing cells were generated by infecting SKOV-3 cells with pCLNCX-luciferase retrovirus (SKOV-3-Luc) as previously reported (Wei, B. R. et al. 2009). Human OVCAR-8 ovarian cancer cells were provided by the National Cancer Institute (part of the NCI-60 collection). The PEO1, PEO4, and PEO6 ovarian cancer cell lines have previously been characterized (Langdon, S. P. et al. 1988) and were kindly provided by Dr. Ian Goldlust (National Center for Advancing Translational Sciences, Shady Grove, Md.). […]
Cell survival was measured by the 3-(4,5-dimethylthiazol-2-yl)-2,5-diphenyltetrazolium bromide (MTT, Invitrogen) assay. […] Absorbance values were determined at […] on a Spectra Max 250 spectrophotometer (Molecular Devices, Sunnyvale, Calif.). […] Cell viability was analyzed via the MTT assay as described above. […]

[2] = test system: ovarian cancer cell lines; test: MTT cytotoxicity assay, ovarian cancer cell line panel; type: cell-based; settings: Homo sapiens, SK-OV-3; ovarian lines other than SKOV-3
Description: Cell survival was measured by the 3-(4,5-dimethylthiazol-2-yl)-2,5-diphenyltetrazolium bromide (MTT, Invitrogen) assay. Cells were seeded at a density of 5,000 cells per well in 96-well plates and incubated at 37° C. in humidified 5% CO2 for 24 hours. The 50% inhibitory concentration (IC50) values were defined as the drug concentrations required to reduce cellular proliferation to 50% of the untreated control well. […] All MTT assays were carried out according to the manufacturer's instructions (Molecular Probes, Eugen, Oreg.). Absorbance values were determined at […] on a Spectra Max 250 spectrophotometer (Molecular Devices, Sunnyvale, Calif.). All MTT assays were performed in triplicate. […] Cells were treated with both drugs for 72 h. Cell viability was analyzed via the MTT assay as described above. Experiments were performed in triplicate, and the data are presented as a percent mean±SD.
SKOV-3 and OVCAR-8 cells have previously been described as p53 null and harboring an inactivating p53 mutation, respectively (Debernardis, D. et al. 1997). […] The […] carry a BRCA2 missense (n) and STOP (s) mutation, respectively (Langdon, S. P. et al. 1988).

Structure (SMILES): CN1CCN(C(=O)C2C(C(=O)O)[C@H]3CC[C@@H]2O3)CC1 (some centres unmarked) [LB100]
- IC50 [1]: 5.5 ± 0.5 µM
- IC50 [2]: 5.7 µM
